Key:
CYP1A1 and CYP2B1 = assay: Cytochrome P450 activity of bilayer construct after induction (7-ethoxy/7-pentoxy resorufin); type: cell-based, human; settings: 24 h exposure, then 7-ethoxy or 7-pentoxy resorufin for 30 min; FIG. 8
Method: The effects of polycyclic carcinogens on cytochrome P450 activity in the artificial tissue constructs was also analyzed. Cytochrome P450 proteins are involved in the metabolism of many exogenous and endogenous chemicals, including drugs, steroids, and toxins. Cytochrome P450 induction is indicative of chemical metabolism. Cellular P450 enzyme activity of CYP1A1 & CYP2B1 families was studied. The bilayer constructs were prepared from biopsy samples of three different patients.
The mucosal construct was exposed to either 3-methylcholantherine and β-nitrophenol (FIG. 8) for 24 h, followed by 7-ethoxy resorufin (5-15 μM) or 7-pentoxy resorufin (5-15 μM) addition (for 30 min) to quantify CYP 1A1 and CYP 2B1 activity, respectively. A β-glucuronidase and arylsulfatase enzyme cocktail was then added to the samples and they were incubated for 2 h at 37° C. Fluorometric absorbance was then measured. A standard curve was prepared using resorufin to quantify the P450 activity. 3-Methylcholanthere and β-nitrophenol are known environmental carcinogens found in cigarette smoke and in airborne industrial byproducts.

[1] = tested on: alveolar artificial tissue construct cells; assay: WST-1 cellular (mitochondrial) activity of treated construct cells; type: cell-based, human; settings: stated in the WST-1 paragraph; 24-h treatments
Method: Cellular uptake of WST-1 was used to determine the mitochondrial activity of live cells. A spectroscopic reading of the collected/metabolized tetrazolium salt was performed to compare the cellular activity of hormone or bacterial particle treated cells to the non-treated control cells after 24-h treatments.

[2] = tested on: bilayer mucosal construct (primary human alveolar epithelial and endothelial cells); assay: Cytokine production by bilayer alveolar mucosal construct (BioPlex/Luminex 22-plex); type: cell-based; settings: corticosteroid addition for 24 h vs control; FIG. 7
Method: Immunosuppressant effects on the cultured mucosal construct were tested by the addition of, for example, dexamethasone (0.5-0.1 μM) and hydrocortisone (5-10 μM) for 24 h. The effect of, for example, diesel particles (0.01-0.2 mg/mL) and urban dust (0.01-0.2 mg/mL) exposure was also studied in the alveolar tissue. NIST standards Diesel Particulate Matter (SRM 2975), and Urban Dust (SRM 1649a), containing both organic and inorganic components, were used as environmental irritants (FIG. 3). A BioPlex 22-Plex™ cytokine kit (Upstate) was used to quantify the cytokine levels in the collected media.
The cytokine profile of the bilayer construct prepared in a 0.33 cm^2 area Transwell™ cell culture device was compared with the alveolar epithelial cells cultured in T-25 flasks. Controls for each experiment with or without the various irritant treatments were also included in the experimental design.
The effects of immunosuppressant hormonal treatment (dexamethasone and hydrocortisone) and exposure to bacterial particles (E. coli and Staphylococcus aureus) on respiratory cells were examined by quantifying cytokine production by the mucosal tissue. […]
Using Luminex™ immunoassay technology, we simultaneously quantified the 22 cytokine and chemokines in the collected treatment media. […]

Row | Structure (SMILES) | p450 (CYP1A1 and CYP2B1) activation of construct cells (CYP1A1 and CYP2B1) | activation of alveolar artificial tissue construct cells [1] | cytokine production by the native cells of the bilayer mucosal construct [2]
1 | Cc1ccc2cc3c(ccc4ccccc43)c3c2c1CC3 [3-methylcholanthere] | activated | activated | 
2 | C[C@]12CCC(=O)C=C1CC[C@@H]1[C@@H]2[C@@H](O)C[C@@]2(C)[C@H]1CC[C@]2(O)C(=O)CO [hydrocortisone] |  |  | significant decrease
3 | O=c1cc(-c2ccccc2)oc2ccc3ccccc3c12 [BNF, β-napthophenol] | less activated | less activated | 

From US9566250B2, “Artificial tissue constructs comprising alveolar cells and methods for using the same” (SANOFI PASTEUR VAXDESIGN CORPORATION, priority 2007, dated 2017)
